The results in this text go back to US12680065B2, “Artificial placenta and methods of preparation” (The Trustees of the University of Pennsylvania, priority 2015, dated 2026).

Molecules are shown by their SMILES. Some results are limits rather than exact numbers.

One data set deals with BeWo cells. Briefly: Forskolin-induced trophoblast syncytialization in the microfluidic device (immunofluorescence). In kind it is cell-based, human. Here is the method:
(§1) Following the formation of a confluent epithelial monolayer on the membrane surface in the upper microchannel, the apical side of the epithelium can be treated with forskolin to activate the protein kinase A pathway in the cultured trophoblasts. A stock solution of forskolin (Sigmal 5 mg/mL in DMSO) can be diluted with F-12K medium to a final concentration of 50 uM and perfused through the upper microchannel. After 72 hours of forskolin treatment, the trophoblast cells can be fixed in 4% PFA, permeabilized in Triton-X 100, and then incubated with 2% BSA in PBS for immunofluorescence staining. To analyze changes in junctional protein expression, the samples can be incubated with anti-E-cadherin antibody (Life Technologies) in 2% BSA, followed by secondary antibody and DAPI. Additionally, media perfusate can be collected at 48, 72, and 96 hours from both untreated and forskolin-treated devices. The collected samples can be analyzed using a human chorionic gonadotropin beta (β-hCG) ELISA kit (Abcam) to quantify the levels of β-hCG produced by the trophoblast population at each time point.
Accordingly, when the BeWo cells in the maternal compartment are exposed to forskolin, they can begin to undergo cell-cell fusion as illustrated by nuclear aggregation that can be evident at 72 hours of forskolin treatment (FIG. 9B). […]

A further data set has as its system trophoblast cells. The experiment in a line: β-hCG ELISA of maternal compartment perfusate. In kind it is cell-based, human. The settings on record: 50 uM forskolin; no detectable β-hCG in the absence of forskolin. As for the experimental part: as §1, with “([…]” for “(Sigmal”, “point. […] Accordingly, the production of the […] of hCG in the maternal compartment can be measured to quantitatively examine syncytialization. […]” for “point.”
On the technique in general: An ELISA detects its analyte on a solid surface through an enzyme-linked reagent.

As for `C=C[C@@]1(C)CC(=O)[C@]2(O)[C@@]3(C)[C@@H](O)CCC(C)(C)[C@@H]3[C@H](O)[C@H](OC(C)=O)[C@@]2(C)O1` [forskolin], the “fraction of BeWo population undergoing cell-cell fusion (nuclear aggregation)” value in the data set with BeWo cells (50 uM forskolin in upper microchannel, 72 hours) is reported as “approximately 50%”. For the same compound, the “effect on cell viability” value in the data set on BeWo cells (50 uM forskolin, BeWo cells in maternal compartment) was “does not necessarily exert deleterious effects on cell viability”. Further, the “time to production of hCG by trophoblast cells” value in the data set with trophoblast cells was no more than 48 h.
